Laboratory results as given in paper PMC12024912, “Druggability Studies of Benzene Sulfonamide Substituted Diarylamide (E3) as a Novel Diuretic” (Biomedicines, 2025).

Assays:
Blood stability, rat = type: in vitro ADME; details: plasma, n=3
Procedure: Plasma from mice, rats, rabbits, and humans was obtained from blood after centrifugation at 3000 r/min for 10 min. Simulated gastric fluid (SGF, pH = 1, containing pepsin) and simulated intestinal fluid (SIF, pH = 6.8, containing trypsin) were configured previously in the experiments. SD rats and mice were collected, and after removing the mucus layer from the small intestine and colon, 20 times the volume of liquid bacterial culture medium was added. An intestinal microbiota suspension was obtained after anaerobic cultivation on a shaking table at 37 °C for 12 h. In the aforementioned systems, E3 was added at a final concentration of 1 μmol/L at 37 °C for different incubation times (0, 10, 20, 30, 60, 120, and 240 min). In liver metabolic stability assays, E3 was incubated with liver microsomes or liver homogenate from mice or rats for 60 min at 37 °C. The stop solution, 5 ng/mL tolbutamide (internal standard, IS) in acetonitrile, was added to stop the metabolic process. Post-centrifugation (18,000× g, 10 min, 4 °C), supernatants were subjected to liquid chromatography–tandem mass spectrometry (LC–MS/MS). Analyte-to-IS peak area ratios quantified residual percentages via Equation (2):Remaining% = (E3peak area/ISpeak area at different time)/(E3peak area/ISpeak area at 0 min) × 100%.(2)

rat UT-B = target: T1, rat UT-B (Rattus norvegicus, UniProt P97689); experiment: Transwell assay of UT-B inhibition in UT-B-MDCK cells; type: cell-based; details: read-out: IC50 against UT-B-mediated urea permeability
T1 construct: expressed in transfected cells
T1 sequence (P97689 1-384): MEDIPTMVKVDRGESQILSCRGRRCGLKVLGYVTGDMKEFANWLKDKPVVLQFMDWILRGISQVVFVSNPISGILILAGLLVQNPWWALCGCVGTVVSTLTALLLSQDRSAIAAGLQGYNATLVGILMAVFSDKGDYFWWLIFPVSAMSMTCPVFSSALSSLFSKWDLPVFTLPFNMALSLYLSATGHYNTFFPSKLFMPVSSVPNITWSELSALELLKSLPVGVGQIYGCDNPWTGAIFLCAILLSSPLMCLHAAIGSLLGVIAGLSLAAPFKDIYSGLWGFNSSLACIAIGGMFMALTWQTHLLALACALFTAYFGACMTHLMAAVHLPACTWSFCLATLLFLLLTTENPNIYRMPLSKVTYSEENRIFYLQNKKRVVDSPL
Procedure: MDCK cells stably expressing rat UT-A1 or UT-B were cultured in DMEM supplemented with 10% FBS, and the mRNA levels of UT-A1 and UT-B were measured in our previous research. Urea flux was assessed according to previously established methods. MDCK cells (2 × 10^5 cells/cm^2) were grown on 12 mm collagen-coated Costar Transwell inserts (0.4 μm pore size, Corning) for 4 d at 37 °C in the presence of 5% CO2. Once the cells on the apical side formed a tight monolayer (transepithelial resistance 1 kΩ/cm^2), PBS (pH = 7.4, containing 10 μmol/L forskolin) with E3 or DMSO was added to the top (0.25 mL) and bottom (1 mL) compartments, and the cultures were incubated in the absence of urea for 30 min at 37 °C. As UT-B is located in the plasma membrane while UT-A1 resides in the cytoplasm, forskolin was used to stimulate the translocation of UT-A1 from the cytoplasm to the membrane for urea transport. Subsequently, the solution in the bottom compartment was replaced with PBS (pH 7.4, containing 10 μmol/L forskolin and E3 or DMSO) supplemented with 15 mmol/L urea. Apical fluid samples (5 μL) were collected at 0, 1, 3, 5, 10, 15, 20, 30, 40, 50, and 60 min. The samples were subjected to an assay for urea (Urea Colorimetric Assay Kit (Diacetyl Oxime Method), Elabscience, Wuhan, China) according to the kit procedure. Then, the inhibition rate was calculated as described previously.

Compound: CC(=O)c1ccc(C(=O)Nc2cccc(NS(=O)(=O)c3ccccc3)c2)o1 [Compound E3, 5-acetyl-N-(3-(phenylsulfonamido)phenyl)furan-2-carboxamide]
- remaining at 1 μmol/L (Blood stability, rat): 46.8%
- IC50 (rat UT-B): 0.058 µM
